Series [1] is described as follows: Multiple-dose escalation pharmacokinetics in healthy subjects (Study 2-Part 1). The conditions noted are these: 24 mg BID IR, Day 14, from Cmax to Ctrough ratio, harmonic mean ± pseudo-SD, 20160 min.
Experimental: Both evaluations followed randomized, double-blind, placebo-controlled designs.
Study drug was administered approximately 30 minutes after a standard breakfast (in the morning) or a snack (in the evening). […] Subjects were confined to the study site and supervised for approximately 18 days.
Samples quantified below the LLOQ were reported as zero.
Renal clearance (CLr) was calculated as Au, 0-12/AUC0-12 at steady state.
Statistical analyses were performed using SAS software (Version 9.3; SAS institute Inc., Cary, NC, USA).
For series [2] the following is noted: QD ER tablet.
Experimental: (§1) Part 1 was a multiple-dose, open-label, multiple-cohort study. Two sequential multiple-ascending dose levels (Low Dose and High Dose levels) were evaluated in the 12 to <18 years age group (Group 1), and one dose level (Low Dose) was evaluated in the two younger age groups (Group 2: 6 to <12 years, and Group 3: 2 to <6 years). Low Dose and High Dose cohorts in age group 1 enrolled 9 subjects each.
(§2) The study enrolled at least 10 subjects below 30 kg. Recruitment of subjects was conducted through a staggered approach based on age. […] Part 3 was an additional safety cohort. […] Part 3 was open to age groups in which Part 1 enrollment was completed. […] Doses were adjusted during the study for any of the body weight categories after review of results from the subjects who completed Study Part 1.
(§3) In Part 1, the dose was administered according to three body weight categories. Subjects were categorized based on age group, and the dose administered for seven consecutive days will be based on three different body weight categories per dose level shown in Table 29.
(§4) Patients (N=51) diagnosed with pcJIA were enrolled into one of four groups in an open-label, multiple-dose study (Group 1, 12 to <18 years, low dose; Group 2, 12 to <18 years, high dose; Group 3, 6 to <12 years, low dose; Group 4, 2 to <6 years, low dose). […]
A short description of series [3]: Solubility of upadacitinib in different aqueous media at 37 °C. The settings on record: low pH.
The nature of the next series: clinical. The settings on record: human, in vivo, po, functional half-life (t1/2), BID IR oral solution.

As a reminder, the half-life is the time in which the quantity being followed falls by half. A higher half-life goes with slow loss.

Experimental for clinical: as §1, §2, §3, §4

For the compound `CC[C@@H]1CN(C(=O)NCC(F)(F)F)C[C@@H]1c1cnc2cnc3[nH]ccc3n12` [Compound 1, (3S,4R)-3-ethyl-4-(3H-imidazo[1,2-a]pyrrolo[2,3-e]pyrazin-8-yl)-N-(2,2,2-trifluoroethyl) pyrrolidine-1-carboxamide], the “t1/2F (functional half-life)” value in series [1] was found to be 3.3 ± 0.4 h.
Regarding `CC[C@@H]1CN(C(=O)NCC(F)(F)F)C[C@@H]1c1cnc2cnc3[nH]ccc3n12` [upadacitinib, (3S,4R)-3-ETHYL-4-(3H-IMIDAZO[1,2-a]PYRROLO[2,3-e]-PYRAZIN-8-YL)-N-(2,2,2-TRIFLUOROETHYL)PYRROLIDINE-1-CARBOXAMIDE], the “time to maximum upadacitinib concentration (Tmax)” value in series [2] is listed as “approximately 3 hours”. In addition, the solubility entry in series [3] is reported as “good solubility at low pH”. In the series “clinical”, the half-life was approximately 120 min.

Values taken from US20260297101A1 (AbbVie Inc., priority 2015, published 2026).
